Like-named read-outs stand apart in the source and are kept apart here.
Tests used:
[1] = system: Respiratory Syncytial Virus (RSV) long strain; test: microbe, parasite or virus in culture; type: cell-based; conditions: human respiratory syncytial virus, Tables A and B list compounds by EC50 band
In short: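 HEp-2 cells infected with 100 TCID50 virus per well, compounds in duplicate, 9-point 1/3 dilutions from 100 μM or 1 μM, 1% DMSO. After 5 days at 37 °C, cell viability (CPE protection) read by CCK-8 absorbance at 450 nm, 630 nm background.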

[2] = system: HEp-2 cells; test: Cytotoxicity Determination (CCK-8, without addition of virus); type: cell-based
In short: (§1)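 HEp-2 cells were seeded at 1,500 cells/well one day before compound addition. Compounds were tested without virus in duplicate over 7 points from 100 μM in 1/2 steps, with 1% final DMSO, 5 days at 37 °C, 5% CO2. Viability was read by CCK-8 after 3-4 hours.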

[3] = target: recombinant RSV complex (Human respiratory syncytial virus A, UniProt P28887); test: RSV Polymerase Inhibition Assay; type: biochemical
Chain of recombinant RSV complex (P28887 whole entry): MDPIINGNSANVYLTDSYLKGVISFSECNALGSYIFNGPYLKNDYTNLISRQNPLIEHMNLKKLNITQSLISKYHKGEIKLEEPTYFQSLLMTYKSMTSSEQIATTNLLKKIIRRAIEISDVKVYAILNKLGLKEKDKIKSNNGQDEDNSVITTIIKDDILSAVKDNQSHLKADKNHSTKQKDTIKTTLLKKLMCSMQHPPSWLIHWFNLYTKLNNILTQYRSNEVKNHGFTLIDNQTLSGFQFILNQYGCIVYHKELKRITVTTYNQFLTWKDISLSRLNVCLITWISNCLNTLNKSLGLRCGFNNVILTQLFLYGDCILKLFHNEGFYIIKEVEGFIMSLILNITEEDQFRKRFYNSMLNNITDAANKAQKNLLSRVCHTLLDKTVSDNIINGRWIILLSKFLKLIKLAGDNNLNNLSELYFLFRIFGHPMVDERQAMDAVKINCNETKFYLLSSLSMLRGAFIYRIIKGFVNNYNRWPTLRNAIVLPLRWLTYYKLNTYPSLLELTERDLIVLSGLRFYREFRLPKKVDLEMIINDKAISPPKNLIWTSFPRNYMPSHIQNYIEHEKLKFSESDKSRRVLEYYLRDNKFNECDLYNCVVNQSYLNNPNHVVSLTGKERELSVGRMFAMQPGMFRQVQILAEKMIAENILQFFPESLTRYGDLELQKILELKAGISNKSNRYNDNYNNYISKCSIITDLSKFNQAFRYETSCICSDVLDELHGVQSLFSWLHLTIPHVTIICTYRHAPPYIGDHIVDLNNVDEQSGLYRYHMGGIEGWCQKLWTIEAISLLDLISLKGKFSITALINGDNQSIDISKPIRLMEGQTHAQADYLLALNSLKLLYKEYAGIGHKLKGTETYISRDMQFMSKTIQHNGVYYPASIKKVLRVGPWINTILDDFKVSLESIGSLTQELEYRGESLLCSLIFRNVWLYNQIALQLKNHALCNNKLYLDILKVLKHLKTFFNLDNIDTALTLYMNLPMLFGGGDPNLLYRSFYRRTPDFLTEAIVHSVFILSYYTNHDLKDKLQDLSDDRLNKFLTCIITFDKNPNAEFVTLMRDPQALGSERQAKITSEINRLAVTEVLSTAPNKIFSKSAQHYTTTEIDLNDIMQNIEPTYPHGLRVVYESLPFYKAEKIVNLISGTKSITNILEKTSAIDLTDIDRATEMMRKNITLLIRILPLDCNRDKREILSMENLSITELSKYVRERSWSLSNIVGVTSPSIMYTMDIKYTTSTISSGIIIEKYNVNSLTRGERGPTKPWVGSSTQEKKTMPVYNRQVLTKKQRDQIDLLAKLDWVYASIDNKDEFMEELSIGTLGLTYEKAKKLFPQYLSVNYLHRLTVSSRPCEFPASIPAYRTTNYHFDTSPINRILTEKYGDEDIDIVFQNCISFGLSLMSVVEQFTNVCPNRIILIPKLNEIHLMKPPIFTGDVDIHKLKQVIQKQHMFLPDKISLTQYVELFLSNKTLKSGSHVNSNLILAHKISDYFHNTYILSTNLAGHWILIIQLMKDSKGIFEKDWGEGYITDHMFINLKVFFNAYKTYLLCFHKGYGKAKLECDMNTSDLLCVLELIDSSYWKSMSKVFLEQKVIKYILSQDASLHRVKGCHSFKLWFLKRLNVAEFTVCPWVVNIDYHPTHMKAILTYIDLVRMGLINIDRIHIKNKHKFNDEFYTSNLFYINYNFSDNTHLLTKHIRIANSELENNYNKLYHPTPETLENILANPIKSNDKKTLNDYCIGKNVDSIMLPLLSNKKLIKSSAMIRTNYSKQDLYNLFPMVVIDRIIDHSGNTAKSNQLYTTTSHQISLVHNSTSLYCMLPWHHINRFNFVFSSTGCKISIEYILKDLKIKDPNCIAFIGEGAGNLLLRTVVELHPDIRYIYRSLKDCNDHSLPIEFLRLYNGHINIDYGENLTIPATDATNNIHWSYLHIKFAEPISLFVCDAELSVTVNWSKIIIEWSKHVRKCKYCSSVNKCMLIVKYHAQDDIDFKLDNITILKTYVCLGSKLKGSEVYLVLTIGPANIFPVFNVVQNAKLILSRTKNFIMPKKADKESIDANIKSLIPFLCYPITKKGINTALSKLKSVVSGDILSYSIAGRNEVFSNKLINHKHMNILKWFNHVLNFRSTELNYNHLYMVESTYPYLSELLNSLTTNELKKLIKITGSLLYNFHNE
Chain of recombinant RSV complex (P03421 whole entry, further chain): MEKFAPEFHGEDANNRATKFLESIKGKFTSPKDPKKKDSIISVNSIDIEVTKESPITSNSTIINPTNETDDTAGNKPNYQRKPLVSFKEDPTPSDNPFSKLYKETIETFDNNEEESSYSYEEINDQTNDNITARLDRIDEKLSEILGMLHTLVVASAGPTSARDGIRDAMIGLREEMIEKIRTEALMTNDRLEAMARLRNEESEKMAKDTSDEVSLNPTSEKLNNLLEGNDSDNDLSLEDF
In short: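 10 nM recombinant RSV polymerase complex in Tris-HCl pH 7.5, 6 mM MgCl2 with RNA oligonucleotide template and radionucleotides, incubated 2 h at 30 °C with increasing inhibitor concentrations. Reaction stopped with EDTA; radiolabeled RNA product counted by scintillation.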

[4] = system: RSV replicon; test: microbe, parasite or virus in culture; type: cell-based; conditions: human respiratory syncytial virus, read-out: EC50, the concentration of the drug required for reducing RSV replicon RNA by 50%
[5] = Cytotoxicity Determination (CCK-8, without addition of virus); type: cell-based; conditions: human, 50% cytotoxicity concentration (CC50)
In short: as §1

[6] = HEp-2, 120 h, read-out: 50% effective concentration (EC50), HEp-2 cells infected with RSV long strain, 5 days, CCK-8 readout

## COc1cc(C(=O)NCC(O)(c2cc(C(C)(N)CF)cc(-c3ccc(F)cc3)n2)C(F)(F)F)ccc1OCC(N)=O (single isomer, unassigned) [Compound 656]
[1]; [6]
  EC50: < 1000 nM
[2]; human, 5 days
  CC50: 10 to 100 µM

## COc1cc(C(=O)NCC(O)(c2ccc(OC)c(-c3ccc(F)c(Cl)c3)n2)C(F)F)ccc1OCC(N)=O (centres unmarked) [Compound 447]
[2]; human, 5 days
  CC50: > 100 µM

## COc1ccc(C(O)(CNC(=O)c2ccc(O[C@H]3CCNC3=O)c(Cl)c2)C(F)(F)F)cc1-c1ccc(F)c(Cl)c1 (some centres unmarked) [Compound 260]
[2]
  CC50: 10 to 100 µM

## CCC(O)(CNC(=O)c1ccc(OCCF)c(OC)c1)c1ccc(OC)c(-c2ccc(F)c(Cl)c2)n1 (single isomer, unassigned) [Compound 122b]
[3]
  IC50: < 10000 nM
[2]; human, 5 days
  CC50: 10 to 100 µM

## COc1cc(C(=O)NCC(O)(c2ccc(OC)c(-c3ccc(F)c(Cl)c3)n2)C2CC2)ccc1OCCO (centres unmarked) [Compound 243]
[2]; human, 5 days
  CC50: 10 to 100 µM

## COc1cc(C(=O)NCC(O)(c2ccc(OC)c(-c3ccc(F)c(Cl)c3)n2)C(F)F)ccc1OCC(N)=O (centres unmarked) [Compound 442]
[3]
  IC50: < 1000 nM
[1]; [6]
  EC50: < 1000 nM
[4]
  EC50: < 1000 nM
[2]; human, 5 days
  CC50: 10 to 100 µM

## COc1cc(C(=O)NCC(O)(c2ccc(OC)c(-c3ccc(F)c(Cl)c3)n2)C(F)(F)F)ccc1OCC(N)=O (single isomer, unassigned) [Compound 239]
[4]
  EC50: < 1000 nM
[2]; human, 5 days
  CC50: 10 to 100 µM

## COc1cc(C(=O)NCC(O)(c2cc(C(C)(N)CF)cc(-c3ccc(F)cc3)n2)C(F)(F)F)ccc1OCC(N)=O (single isomer, unassigned) [Compound 655]
[3]
  IC50: < 1000 nM
[2]; human, 5 days
  CC50: > 100 µM

## COc1cc(C(=O)NCC(O)(c2ccc(OC)c(-c3ccc(F)c(Cl)c3)n2)C(F)(F)F)ccc1OC1COC1 (centres unmarked) [Compound 250]
[3]
  IC50: < 1000 nM
[1]; 120 h, read-out: 50% effective concentration (EC50), HEp-2 cells infected with RSV long strain, 5 days, CCK-8 readout
  EC50: < 1000 nM
[4]
  EC50: < 1000 nM
[5]
  CC50 at 5 days: 10 to 100 µM

## COc1cc(C(=O)NCC(O)(c2cc(C3(C)CCNC3)cc(-c3ccc(F)cc3)n2)C(F)(F)F)ccc1OC1CC1 (centres unmarked) [Compound 507]
[3]
  IC50: < 1000 nM
[1]; [6]
  EC50: < 1000 nM
[4]
  EC50: < 1000 nM
[5]
  CC50 at 5 days: 10 to 100 µM
